Experiment: Reverse phase HPLC, degradation products (purity), stability study
Format: physicochemical
Settings: storage two months (eight weeks) at 4° C., 25° C. and 37° C.
Method: Reverse phase HPLC was used along with visual observations which were conducted at each time point to monitor any precipitation or cloudiness.
The formulations were incubated at 4° C., 25° C. and 37° C. and analyzed for a) degradation products, b) pH stability and c) formulation clarity.
Reverse phase HPLC was used to visualize degradation products.

Structure (SMILES): C[C@H](CCC(=O)[O-])[C@H]1CCC2C3CC[C@@H]4C[C@H](O)CC[C@]4(C)C3C[C@H](O)[C@@]21C.[Na+] (stereo partly drawn) [sodium deoxycholate, sodium (4R)-4-((3R,5R,10S,12S,13R,17R)-3,12-dihydroxy-10,13-dimethylhexadecahydro-1H-cyclopenta[a]phenanthren-17-yl)pentanoate]
- chemical degradation by reverse phase HPLC: no degradation

Reference: US10071105B2, “Formulations of deoxycholic acid and salts thereof” (Kythera Biopharmaceuticals, Inc., priority 2009, dated 2018)
